Test results: article PMC9469208 (Journal of Medicinal Chemistry, 2022)

Tests used:
[1] = system: NMDA receptors (tonic NMDA currents)
[2] = system: maximal electroshock seizures in mice; details: mouse, in vivo; cited from earlier work
[3] = system: PTZ-induced seizures in mice; details: mouse, in vivo; cited from earlier work
[4] = system: 6 Hz (32 mA) seizures in mice; details: mouse, in vivo; cited from earlier work

SMILES | effect on tonic NMDA currents [1] | ED50 (MES) [2] | ED50 (scPTZ) [3] | ED50 (6 Hz 32 mA) [4]
NC(CCCP(=O)(O)O)C(=O)O (centres unmarked) [AP-5] | fully inhibited | – | – | –
C=C(C)[C@@H]1CCC(C)=C[C@H]1c1c(O)cc(CCCCC)cc1O [CBD, cannabidiol] | – | 80 (65.5–96.0) mg/kg | 120 (98.5–146) mg/kg | –
CCC1(C)CC(=O)NC1=O (centres unmarked) [ETX, ethosuximide] | – | – | 140.4 (115.8–170.2) mg/kg | >200 mg/kg
